Laboratory results as given in patent US11021476B2, “Pyrroloquinoline quinone monosodium and method for producing the same, and composition comprising the same” (Mitsubishi Gas Chemical Company, Inc., priority 2016, dated 2021).

Tests used:
Suspension fluidity test = type: physicochemical; conditions: 100 g/L in water, mixed at room temperature, observed at 4° C.
[1] = Test of penetration into skin; conditions: 5 mg crystals on pig skin, 80 minutes at 37° C.; [(untreated − treated)/untreated brightness]×100
Procedure: The skin of a pig was washed with tap water, and the water was completely wiped off. 5 mg of one of crystals was brought into contact with this skin of the pig and then fixed to the skin by wrapping in plastic wrap. After 80 minutes at 37° C., the tape was peeled, and the skin was washed with tap water to remove the test composition adhering to the skin surface. Evaluation was performed by capturing an image of the test composition by a scanner and measuring a change in the brightness of the skin using image software (product name: Paint (software included with Windows (registered trademark) XP, manufactured by Microsoft Corporation). At this time, the change in the brightness of the skin was calculated by [[brightness of untreated skin−brightness after treatment]/[brightness of untreated skin]]×100.

Bulk density measurement = type: physicochemical; conditions: 10 mL volumetric flask
Procedure: Bulk density was measured using a 10 mL volumetric flask.

[2] = Reaction with powdered green tea; type: physicochemical; conditions: 2 mg powdered green tea + 1 mg crystals + 100 μL water
Procedure: 2 mg of powdered green tea and 1 mg of the crystals obtained in each of Examples 1 and 6 and Comparative Example 2 were mixed. As a model in which the mixed powder was wet, 100 μL of water was added. […] The crystals 2 were very stable and excellent in powder mixing.

[3] = Thermal stability test (solubility change at 180° C. for 10 minutes); type: physicochemical; conditions: for State of dissolution after heating at 180° C. for 10 minutes (with 100 before heating): solubility from absorbance at 330 nm, solubility before heating = 100; for State of dissolution after heating at 180° C. for 10 minutes: 1 mg heated on hot plate, then 10 mL water, stirred 15 minutes
Procedure: Whether the solubility of crystals changed by heat treatment was tested. […] At this time, the state was recorded. The aqueous solution after the stirring was filtered through a 0.5 μm filter and diluted to 1/10, and absorbance at 330 nm was measured. A change in the solubility of the crystals before and after the heat treatment was examined by this measurement.

[4] = Thermal stability test (70° C. color change test); type: physicochemical; conditions: 1 mg crystals in 70° C. oven
Procedure: 1 mg of the crystals obtained in each of Examples 1 and 6 and Comparative Example 2 were placed in a 70° C. oven, and a change in color after 2 hours was observed.

[5] = Solubility and color of mixtures; type: physicochemical
Procedure: Powders were mixed in a proportion shown in Table 3, and the color of the powder was recorded. 1 mL of water was added to a crystal mass of 10 mg at room temperature. […] The aqueous solution after the cooling was centrifuged, and the supernatant liquid was removed. This was diluted with a phosphate buffer, and the solubility was calculated from absorbance at 330 nm.

## O=C(O)c1cc(C(=O)[O-])c2c(n1)C(=O)C(=O)c1cc(C(=O)O)[nH]c1-2.[Na+] [Comparative Example 2, reference compound]
Suspension fluidity test
  Fluidity when crystals are added to water: No
[1]
  Penetration (change in the brightness of the skin): 1.6
Bulk density measurement
  Bulk specific gravity: 0.20 g/mL
[2]
  Color change of tea leaves: changed color to orange
[3]
  State of dissolution after heating at 180° C. for 10 minutes (with 100 before heating): 71
[4]
  Change in color after 2 hours at 70° C.: Change to black

## O=C(O)c1cc(C(=O)O)c2c(n1)C(=O)C(=O)c1cc(C(=O)O)[nH]c1-2.[Na] [Example 1, Pyrroloquinoline Quinone Monosodium]
Suspension fluidity test
  Fluidity when crystals are added to water: Yes
[5]
  Color in form of powder: Deep red
[5]; thermodynamic from solid, 10 mg in 1 mL water, ultrasonic 5 min, 70 degrees 10 min, cooled 30 min at room temperature, absorbance at 330 nm
  solubility at 30 min: 4.5 mM
[1]
  Penetration (change in the brightness of the skin): 8.4
Bulk density measurement
  Bulk specific gravity: 0.29 g/mL
[2]
  Color change of tea leaves: changed color to orange
[3]
  State of dissolution after heating at 180° C. for 10 minutes: All dissolve
  State of dissolution after heating at 180° C. for 10 minutes (with 100 before heating): 82
[4]
  Change in color after 2 hours at 70° C.: No change

## O=C(O)c1cc(C(=O)O)c2c(n1)C(=O)C(=O)c1cc(C(=O)O)[nH]c1-2.[Na].[Na] [Raw material, pyrroloquinoline quinone disodium, reference compound]
[5]
  Color in form of powder: Red

## Dipyrroloquinoline quinone monosodium [Example 7]
Suspension fluidity test
  Fluidity when crystals are added to water: Yes
[5]; 10 mg in 1 mL water, ultrasonic 5 min, 70 degrees 10 min, cooled 30 min at room temperature, absorbance at 330 nm
  Solubility: 2.1 mM
[5]
  Color in form of powder: Black
[1]
  Penetration (change in the brightness of the skin): 4.3
Bulk density measurement
  Bulk specific gravity: 0.27 g/mL
[2]
  Color change of tea leaves: did not change color
[3]
  State of dissolution after heating at 180° C. for 10 minutes: All dissolve
  State of dissolution after heating at 180° C. for 10 minutes (with 100 before heating): 100
[4]
  Change in color after 2 hours at 70° C.: No change
